These are literature values, as cited in patent US10976308B2, “Plant-derived nanofibrillar cellulose hydrogel for cell culture and chemical testing” (UPM-KYMMENE CORPORATION, priority 2014, dated 2021).

What is called Cmax is the highest concentration seen after dosing.

For data set [1] the following is noted: by Khetani et al. 2013.
The next data set has as its system 3D liver models. As to conditions: by Khetani et al. 2013.

For the compound `O=C(O)Cc1ccccc1Nc1c(Cl)cccc1Cl` [diclofenac], the Cmax in data set [1] is 8 µM. For `CN(C)CCCN1c2ccccc2CCc2ccccc21` [imipramine], the “Toxicity in 3D liver models” value with 3D liver models is reported as “toxicity is not detected in all 3D models tested”.

Take `CC(C)NCC(O)COc1cccc2ccccc12` (stereo not shown) [propranolol]: the Cmax in data set [1] is 0.2 µM. The “Toxicity in 3D liver models” value with 3D liver models was “not detected in the 3D liver models”.
